Data reported in US9695155B2, “Herbicidal substituted pyrimidinyloxy benzene compounds” (E. I. DU PONT DE NEMOURS AND COMPANY, priority 2013, dated 2017).

Key:
barnyardgrass [1] = assay: Test A preemergence; assay type: in vivo, Echinochloa crus-galli
Outline: (§1)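 Scoring: eye-based comparison with untreated controls, 0 for no effect through 100 for complete control, at about day 10. Treatments: directed soil spray preemergence; foliar spray postemergence on 2–10 cm plants at the one- to two-leaf stage. Medium: loam soil with sand.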

kochia [2] = assay: Test A preemergence; assay type: in vivo, Kochia scoparia
Outline: as §1

ragweed [3] = assay: Test A preemergence; assay type: in vivo, Ambrosia elatior
Outline: as §1

Italian ryegrass [4] = assay: Test A preemergence; assay type: in vivo, Lolium multiflorum
Outline: as §1

giant foxtail [5] = assay: Test A preemergence; assay type: in vivo, Setaria faberii
Outline: as §1

pigweed [6] = assay: Test A preemergence; assay type: in vivo, Amaranthus retroflexus
Outline: as §1

barnyardgrass [7] = assay: Test A postemergence; assay type: in vivo, Echinochloa crus-galli; conditions: 0 to 100 scale, 0 no effect, 100 complete control
Outline: as §1

kochia [8] = assay: Test A postemergence; assay type: in vivo, Kochia scoparia; conditions: 0 to 100 scale, 0 no effect, 100 complete control
Outline: as §1

ragweed [9] = assay: Test A postemergence; assay type: in vivo, Ambrosia elatior; conditions: 0 to 100 scale, 0 no effect, 100 complete control
Outline: as §1

Italian ryegrass [10] = assay: Test A postemergence; assay type: in vivo, Lolium multiflorum; conditions: 0 to 100 scale, 0 no effect, 100 complete control
Outline: as §1

giant foxtail [11] = assay: Test A postemergence; assay type: in vivo, Setaria faberii; conditions: 0 to 100 scale, 0 no effect, 100 complete control
Outline: as §1

pigweed [12] = assay: Test A postemergence; assay type: in vivo, Amaranthus retroflexus; conditions: 0 to 100 scale, 0 no effect, 100 complete control
Outline: as §1

wheat = assay: Test A postemergence; assay type: in vivo, Triticum aestivum; conditions: 0 to 100 scale, 0 no effect, 100 complete control
Outline: as §1

corn = assay: Test A postemergence; assay type: in vivo, Zea mays; conditions: 0 to 100 scale, 0 no effect, 100 complete control
Outline: as §1

blackgrass = assay: Test A postemergence; assay type: in vivo, Alopecurus myosuroides; conditions: 0 to 100 scale, 0 no effect, 100 complete control
Outline: as §1

galium = assay: Test A postemergence; assay type: in vivo, Galium aparine; conditions: 0 to 100 scale, 0 no effect, 100 complete control
Outline: as §1

rice = assay: Test B flooded paddy test; assay type: in vivo, Oryza sativa; conditions: Flood, 250 g ai/ha; 0 to 100 scale where 0 is no effect and 100 is complete control
Outline: (§2)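 Plants at 2-leaf stage; pots flooded to 3 cm above soil and compound applied directly into paddy water, depth held throughout. After 13 to 15 days in greenhouse, visual rating versus controls on 0 (no effect) to 100 (complete control) scale.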

sedge, umbrella = assay: Test B flooded paddy test; assay type: in vivo, Cyperus difformis; conditions: Flood, 250 g ai/ha; 0 to 100 scale where 0 is no effect and 100 is complete control
Outline: as §2

Heteranthera limosa = assay: Test B flooded paddy test; assay type: in vivo; conditions: Flood, 250 g ai/ha; 0 to 100 scale where 0 is no effect and 100 is complete control
Outline: as §2

barnyardgrass [13] = assay: Test B flooded paddy test; assay type: in vivo, Echinochloa crus-galli; conditions: Flood, 250 g ai/ha; 0 to 100 scale where 0 is no effect and 100 is complete control
Outline: as §2

[14] = 1000 g ai/ha, 0 to 100 scale, 0 no effect, 100 complete control, approx. 10 days
[15] = 31 g ai/ha, 0 to 100 scale where 0 is no effect and 100 is complete control, visual, approximately 10 days

COC(=O)c1cccc(Oc2ncc(Cl)cn2)c1-n1cc(C(F)(F)F)cn1 [Compound 248]
Barnyardgrass plant response rating (barnyardgrass [1]; [14]): 80
Kochia plant response rating (kochia [2]; [14]): 100
Ragweed plant response rating (ragweed [3]; [14]): 40
Ryegrass, Italian plant response rating (Italian ryegrass [4]; [14]): 50
Foxtail, Giant plant response rating (giant foxtail [5]; [14]): 100
Pigweed plant response rating (pigweed [6]; [14]): 100
Plant response rating, Barnyardgrass (barnyardgrass [7]; 1000 g ai/ha): 70
Plant response rating, Kochia (kochia [8]; 1000 g ai/ha): 90
Plant response rating, Ragweed (ragweed [9]; 1000 g ai/ha): 50
Plant response rating, Ryegrass, Italian (Italian ryegrass [10]; 1000 g ai/ha): 50
Plant response rating, Foxtail, Giant (giant foxtail [11]; 1000 g ai/ha): 100
Plant response rating, Pigweed (pigweed [12]; 1000 g ai/ha): 100
Plant response rating, Wheat (wheat; 1000 g ai/ha): 20
Plant response rating, Corn (corn; 1000 g ai/ha): 80
Plant response rating, Blackgrass (blackgrass; 1000 g ai/ha): 30
Plant response rating, Galium (galium; 1000 g ai/ha): 100
Plant response rating, Rice (rice): 15
Plant response rating, Sedge, Umbrella (sedge, umbrella): 70
Plant response rating, Ducksalad (Heteranthera limosa): 50
Plant response rating, Barnyardgrass (barnyardgrass [13]): 0

CC(C)Oc1cnn(-c2c(C#N)cccc2Oc2ncc(Br)cn2)c1 [Compound 254]
Plant response rating, Barnyardgrass (barnyardgrass [1]; [15]): 20
Barnyardgrass plant response rating (0 to 100 scale, 0 is no effect, 100 is complete control) (barnyardgrass [1]; 125 g ai/ha): 80
Plant response rating, Kochia (kochia [2]; [15]): 20
Kochia plant response rating (0 to 100 scale) (kochia [2]; 125 g ai/ha): 80
Plant response rating, Ragweed (ragweed [3]; [15]): 0
Ragweed plant response rating (0 to 100 scale) (ragweed [3]; 125 g ai/ha): 0
Plant response rating, Ryegrass, Italian (Italian ryegrass [4]; [15]): 0
Ryegrass, Italian plant response rating (0 to 100 scale) (Italian ryegrass [4]; 125 g ai/ha): 40
Plant response rating, Foxtail, Giant (giant foxtail [5]; [15]): 30
Foxtail, Giant plant response rating (0 to 100 scale) (giant foxtail [5]; 125 g ai/ha): 90
Plant response rating, Pigweed (pigweed [6]; [15]): 30
Pigweed plant response rating (0 to 100 scale) (pigweed [6]; 125 g ai/ha): 90
Plant response rating, Barnyardgrass (barnyardgrass [7]; 31 g ai/ha): 10
Plant response rating, Barnyardgrass (barnyardgrass [7]; 125 g ai/ha): 60
Plant response rating, Kochia (kochia [8]; 31 g ai/ha): 20
Plant response rating, Kochia (kochia [8]; 125 g ai/ha): 60
Plant response rating, Ragweed (ragweed [9]; 31 g ai/ha): 10
Plant response rating, Ragweed (ragweed [9]; 125 g ai/ha): 20
Plant response rating, Ryegrass, Italian (Italian ryegrass [10]; 31 g ai/ha): 0
Plant response rating, Ryegrass, Italian (Italian ryegrass [10]; 125 g ai/ha): 20
Plant response rating, Foxtail, Giant (giant foxtail [11]; 31 g ai/ha): 10
Plant response rating, Foxtail, Giant (giant foxtail [11]; 125 g ai/ha): 60
Plant response rating, Pigweed (pigweed [12]; 31 g ai/ha): 10
Plant response rating, Pigweed (pigweed [12]; 125 g ai/ha): 30
Plant response rating, Wheat (wheat; 31 g ai/ha): 0
Plant response rating, Wheat (wheat; 125 g ai/ha): 30
Plant response rating, Corn (corn; 31 g ai/ha): 10
Plant response rating, Corn (corn; 125 g ai/ha): 20
Plant response rating, Blackgrass (blackgrass; 31 g ai/ha): 0
Plant response rating, Blackgrass (blackgrass; 125 g ai/ha): 60
Plant response rating, Galium (galium; 31 g ai/ha): 20
Plant response rating, Galium (galium; 125 g ai/ha): 100
Plant response rating, Rice (rice): 0
Plant response rating, Sedge, Umbrella (sedge, umbrella): 60
Plant response rating, Ducksalad (Heteranthera limosa): 65
Plant response rating, Barnyardgrass (barnyardgrass [13]): 0
